Data on six compounds can be found in ChEMBL document CHEMBL1201862, “PubChem BioAssay data set” (2004).

Assay [1] addresses T1, SUMO-activating enzyme (Homo sapiens, UniProt Q9UBT2). In words: blockers of SAE1/SAE2–UBC9 SUMO transfer – biochemical, HTRF, uHTS, primary screen (AID 2006). The assay is classed as protein-complex assay. (In general: In TR-FRET formats the signal depends on donor and acceptor labels being close together.)
The target in assay [2] is T1, SUMO-activating enzyme. In words: blockers of UBC9-mediated SUMO conjugation – biochemical, AlphaScreen, SUMOylation inhibitor project, confirmation (AID 2018). The assay is classed as functional. Background: In Alpha technology, singlet oxygen from a donor bead excites a nearby acceptor bead.
In the next assay the test system is Streptococcus. In words: GAS UMAA2166 growth inhibition – luminescence, BacTiterGlo, counter-screen for streptokinase expression inhibitor project, dose response (AID 1915).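 Note: potency for reduction of bacterial viability or growth.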 The format is functional, organism-based. In general terms: The purpose of a counterscreen is to sort out artefacts and off-target activity.
Assay [3] has as its system BJ. In words: growth inhibition of engineered Ras-driven BJ cells – cell-based, alamar blue fluorescence, cherrypicked samples, dose response (AID 2631).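 Note: confirmatory dose-response assay in RAS-dependent BJ fibroblasts engineered with TERT, LT and ST, with cytotoxicity read by fluorescence.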 The assay is classed as functional. The conditions noted are these: Homo sapiens.
A further assay in a line: cells. The assay is classed as functional, cell-based.
A short description of assay [4]: DRD fibroblast viability loss – cell-based, non-viral oncogenic, luminescence, dose response (AID 1934). The assay is classed as functional. The following applies: Homo sapiens.
Assay [5] in a line: alpha-synuclein stem-loop translation blockers – luminescence, H4 neuroglioblastoma cells, dose confirmation, confirmation (AID 2454).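 Note: H4 neuroglioblastoma cells carrying an alpha-synuclein 5'UTR luciferase reporter; potency for inhibition of the luciferase signal.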 The format is functional, cell-based.
For another assay, the system named is HEK293. In words: EBV LMP1 TES2 canonical NF-kB signalling blockers – cell-based, HEK293, luciferase, cherry-pick, dose response (AID 588343). The format is functional. The conditions noted are these: Homo sapiens.
Assay [6] in a line: luciferase reporter signal suppression in cells – H4 neuroglioma cells, luminescence, dose response (AID 1990). The format is functional, cell-based.
For assay [7], the system named is BJ. In words: BJ-TERT-LT-ST fibroblast viability loss – cell-based, RAS-independent, luminescence, dose response (AID 1935).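 Note: BJ fibroblasts immortalized with TERT plus LT and ST oncogenes.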 The format is functional. The following applies: Homo sapiens.
Assay [8] deals with Streptococcus sp. 'group A'. Briefly: Streptococcus pyogenes SK(-)GAS viability under kanamycin – luminescence, BacTiterGlo, confirmation, counter-screen for streptokinase expression inhibitor project, dose response (AID 1900). The format is functional, organism-based.
Assay [9] has as its system BJ. In words: BJ-TERT fibroblast viability loss – cell-based, RAS-independent, luminescence, dose response (AID 1933). The following applies: Homo sapiens. The assay is classed as functional.
Assay [10] is described as follows: alpha-synuclein stem-loop luciferase translation blockers – H4 neuroglioma cells, luminescence, confirmation (AID 1988). The format is functional, cell-based.
Assay [11] is described as follows: luciferase reporter signal reduction – luminescence, H4-C neuroglioblastoma cells, dose response (AID 2458).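 Note: H4 neuroglioblastoma cells stably carrying a luciferase reporter gene fusion.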 The format is functional, cell-based.
For assay [12], the system named is BJ. Briefly: cells. The assay is classed as functional, cell-based. The following applies: Homo sapiens.
Assay [13] is described as follows: NIH-3T3 fibroblast cytotoxicity, dose response, cytotoxicity control, cell-based, fluorescence, Alamar Blue, secondary assay (AID 2327).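 Note: NIH-3T3 mouse fibroblasts cultured with fluconazole at 8 µg/mL.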 The assay is classed as functional.
In another assay the test system is INS1. In words: INS-1E survival protection against cytokine death – cell-based, luminescence, retest, dose response (AID 449756).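 Note: cell death triggered by IL-1 beta plus TNF-alpha plus IFN-gamma mixture; protective hits raise ATP signal compared with cytokine alone wells.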 The format is functional. The following applies: Rattus norvegicus.
In assay [14] the target is Heat shock protein HSP 90-alpha (Homo sapiens, UniProt P07900). The format is functional, organism-based.
Assay [15] in a line: fluconazole-exposed Candida albicans growth modulators – fluorescence, retest, confirmation (AID 2467). The assay is classed as functional, cell-based.
A further assay has as its system T-cell. In words: loss of vesicle association with mouse CD8+ T cells – mouse 2C CD8+ T cells, flow cytometry, dose response (AID 485284). The format is functional.
The target of a further assay is T2, Streptokinase A (Streptococcus pyogenes serotype M1, UniProt P10520).
T2 sequence (P10520 whole entry): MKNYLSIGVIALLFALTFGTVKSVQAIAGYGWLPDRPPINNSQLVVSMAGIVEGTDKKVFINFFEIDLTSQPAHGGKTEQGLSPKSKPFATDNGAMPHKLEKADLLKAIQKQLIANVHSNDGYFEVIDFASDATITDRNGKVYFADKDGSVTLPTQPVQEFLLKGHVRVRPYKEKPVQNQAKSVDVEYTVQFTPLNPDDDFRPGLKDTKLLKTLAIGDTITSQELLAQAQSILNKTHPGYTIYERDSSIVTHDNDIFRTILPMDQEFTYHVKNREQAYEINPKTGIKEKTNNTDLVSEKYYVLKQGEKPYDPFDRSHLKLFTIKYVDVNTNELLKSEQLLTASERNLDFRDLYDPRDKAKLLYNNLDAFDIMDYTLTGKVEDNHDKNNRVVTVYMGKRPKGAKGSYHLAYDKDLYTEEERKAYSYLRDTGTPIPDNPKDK
In words: viability-normalized secreted streptokinase activity reduction – plasminogen activation absorbance, OD405, dose response (AID 1914).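 Note: secreted streptokinase activity via plasminogen activation per viability signal from cell pellet.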 The format is functional, Streptococcus pyogenes M1 GAS.

Assay [16] concerns the target Dual specificity tyrosine-phosphorylation-regulated kinase 1A (Rattus norvegicus, UniProt Q63470). The assay is classed as biochemical, Homo sapiens.
Assay [17] is described as follows: HEK-293T cell viability reduction – luminescence, B-cell screen hits, cytotoxicity control for BCR NF-kB inhibitor project, dose response (AID 489021).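 Note: HEK-293T cells carrying an NF-kB luciferase reporter; cells exposed to compound for about 14 hours before viability readout.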 The assay is classed as functional, cell-based.
The nature of assay [18]: Trypanosoma cruzi growth suppression in host cells – NIH3T3 host cells, beta-gal luminescence, confirmation (AID 2044).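 Note: intracellular parasites grown in NIH/3T3 mouse fibroblasts as host cells; luminescent beta-galactosidase reporter signal from transgenic T. cruzi replicating inside host cells; inhibitors lower the luminescence signal.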 The format is functional, cell-based.
The target in another assay is Paired box protein Pax-8 (Homo sapiens, UniProt Q06710). In words: PAX8 transcriptional activity inhibition in RMG-I – RMG-I cells, luciferase, cherry-pick, dose response (AID 687027).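 Note: luciferase reporter driven by Pax8 target thyroperoxidase promoter measured by SteadyGlo luminescence.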 The assay is classed as functional, cell-based.
The next assay has as its target T3, Hexokinase HKDC1 (Homo sapiens, UniProt Q2TB90).
T3 sequence (Q2TB90 whole entry): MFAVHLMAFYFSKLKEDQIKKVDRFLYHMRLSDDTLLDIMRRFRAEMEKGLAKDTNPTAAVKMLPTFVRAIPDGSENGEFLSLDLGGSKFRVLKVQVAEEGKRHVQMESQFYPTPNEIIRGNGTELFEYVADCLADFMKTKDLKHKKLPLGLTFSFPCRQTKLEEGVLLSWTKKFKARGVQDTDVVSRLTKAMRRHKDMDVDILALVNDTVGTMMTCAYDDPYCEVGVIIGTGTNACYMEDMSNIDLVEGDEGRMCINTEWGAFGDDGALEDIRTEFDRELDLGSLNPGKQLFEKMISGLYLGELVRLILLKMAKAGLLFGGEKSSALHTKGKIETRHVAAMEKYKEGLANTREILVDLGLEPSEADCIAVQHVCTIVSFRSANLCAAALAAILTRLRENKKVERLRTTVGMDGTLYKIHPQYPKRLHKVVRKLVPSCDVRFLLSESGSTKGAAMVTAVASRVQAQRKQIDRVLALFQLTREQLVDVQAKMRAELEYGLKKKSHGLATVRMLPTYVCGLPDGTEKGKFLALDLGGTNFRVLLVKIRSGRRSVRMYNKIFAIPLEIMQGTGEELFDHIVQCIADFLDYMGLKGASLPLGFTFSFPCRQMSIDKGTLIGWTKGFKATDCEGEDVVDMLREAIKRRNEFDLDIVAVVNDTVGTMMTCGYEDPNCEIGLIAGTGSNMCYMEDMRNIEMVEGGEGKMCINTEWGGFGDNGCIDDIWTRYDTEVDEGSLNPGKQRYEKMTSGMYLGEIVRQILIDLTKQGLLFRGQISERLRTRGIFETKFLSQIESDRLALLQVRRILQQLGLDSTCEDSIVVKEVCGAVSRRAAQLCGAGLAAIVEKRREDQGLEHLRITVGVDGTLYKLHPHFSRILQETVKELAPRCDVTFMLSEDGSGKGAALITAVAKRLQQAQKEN
In words: activation of HKDC1 glucose phosphorylation – biochemical, W721R variant, dose response (AID 504730). The format is functional.

In another assay the target is Hexokinase-1 (Homo sapiens, UniProt P19367). In words: HK1 enzyme activation by HKDC1 hits – biochemical, selectivity assay for HKDC1 activator project, dose response (AID 504762). The format is functional.
A short description of assay [19]: NIH3T3 cell viability loss – ATP luminescence, mouse fibroblasts, counter-screen, dose response (AID 2010).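 Note: cells exposed to compound for about 90 hours before reading.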 The assay is classed as functional, cell-based.
In another assay the target is X-box-binding protein 1 (Homo sapiens, UniProt P17861). The format is functional, Cricetulus griseus.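 Note: confirmatory dose-response counter-screen serving a CHOP assay.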

Activity calls are given as the source filed them. Cut-off read from the data, not from the text of the source, for most assays here: actives have a measured EC50 and inactives only a lower limit.

T1 sequence (Q9UBE0 whole entry): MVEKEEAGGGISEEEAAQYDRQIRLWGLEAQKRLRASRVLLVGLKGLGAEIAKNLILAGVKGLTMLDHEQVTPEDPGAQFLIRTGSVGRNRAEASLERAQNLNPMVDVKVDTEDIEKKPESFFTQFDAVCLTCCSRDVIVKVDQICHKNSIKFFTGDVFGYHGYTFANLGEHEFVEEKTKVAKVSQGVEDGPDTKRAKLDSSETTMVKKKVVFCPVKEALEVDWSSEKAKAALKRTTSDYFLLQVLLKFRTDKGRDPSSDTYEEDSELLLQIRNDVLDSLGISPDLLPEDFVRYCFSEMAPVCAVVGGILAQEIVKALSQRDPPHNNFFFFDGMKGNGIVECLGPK
T1 sequence (Q9UBT2 whole entry): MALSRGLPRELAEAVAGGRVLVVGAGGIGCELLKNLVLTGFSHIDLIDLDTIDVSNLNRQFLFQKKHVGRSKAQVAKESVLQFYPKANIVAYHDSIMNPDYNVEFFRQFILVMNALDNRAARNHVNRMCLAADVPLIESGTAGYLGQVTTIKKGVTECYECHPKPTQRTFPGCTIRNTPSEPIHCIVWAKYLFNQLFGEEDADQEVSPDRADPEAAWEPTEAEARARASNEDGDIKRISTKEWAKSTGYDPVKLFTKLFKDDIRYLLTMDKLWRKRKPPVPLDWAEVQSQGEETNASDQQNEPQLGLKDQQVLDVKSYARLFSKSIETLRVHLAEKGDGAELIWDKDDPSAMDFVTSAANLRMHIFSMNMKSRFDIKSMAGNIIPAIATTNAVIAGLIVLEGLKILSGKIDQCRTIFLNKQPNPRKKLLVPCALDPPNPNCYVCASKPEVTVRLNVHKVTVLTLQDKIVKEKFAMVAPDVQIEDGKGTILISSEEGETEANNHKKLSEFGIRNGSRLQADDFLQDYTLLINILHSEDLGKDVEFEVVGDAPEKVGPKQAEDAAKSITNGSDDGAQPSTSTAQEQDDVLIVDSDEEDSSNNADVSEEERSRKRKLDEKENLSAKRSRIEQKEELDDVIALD
Sequence of X-box-binding protein 1 (P17861 whole entry): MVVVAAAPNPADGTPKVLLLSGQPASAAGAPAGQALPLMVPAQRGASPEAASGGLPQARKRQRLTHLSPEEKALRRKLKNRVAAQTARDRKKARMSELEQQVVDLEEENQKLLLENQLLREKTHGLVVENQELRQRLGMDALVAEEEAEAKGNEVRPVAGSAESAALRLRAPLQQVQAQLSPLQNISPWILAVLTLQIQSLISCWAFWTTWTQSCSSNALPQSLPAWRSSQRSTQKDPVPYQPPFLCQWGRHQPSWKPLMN
Sequence of Hexokinase-1 (P19367 whole entry): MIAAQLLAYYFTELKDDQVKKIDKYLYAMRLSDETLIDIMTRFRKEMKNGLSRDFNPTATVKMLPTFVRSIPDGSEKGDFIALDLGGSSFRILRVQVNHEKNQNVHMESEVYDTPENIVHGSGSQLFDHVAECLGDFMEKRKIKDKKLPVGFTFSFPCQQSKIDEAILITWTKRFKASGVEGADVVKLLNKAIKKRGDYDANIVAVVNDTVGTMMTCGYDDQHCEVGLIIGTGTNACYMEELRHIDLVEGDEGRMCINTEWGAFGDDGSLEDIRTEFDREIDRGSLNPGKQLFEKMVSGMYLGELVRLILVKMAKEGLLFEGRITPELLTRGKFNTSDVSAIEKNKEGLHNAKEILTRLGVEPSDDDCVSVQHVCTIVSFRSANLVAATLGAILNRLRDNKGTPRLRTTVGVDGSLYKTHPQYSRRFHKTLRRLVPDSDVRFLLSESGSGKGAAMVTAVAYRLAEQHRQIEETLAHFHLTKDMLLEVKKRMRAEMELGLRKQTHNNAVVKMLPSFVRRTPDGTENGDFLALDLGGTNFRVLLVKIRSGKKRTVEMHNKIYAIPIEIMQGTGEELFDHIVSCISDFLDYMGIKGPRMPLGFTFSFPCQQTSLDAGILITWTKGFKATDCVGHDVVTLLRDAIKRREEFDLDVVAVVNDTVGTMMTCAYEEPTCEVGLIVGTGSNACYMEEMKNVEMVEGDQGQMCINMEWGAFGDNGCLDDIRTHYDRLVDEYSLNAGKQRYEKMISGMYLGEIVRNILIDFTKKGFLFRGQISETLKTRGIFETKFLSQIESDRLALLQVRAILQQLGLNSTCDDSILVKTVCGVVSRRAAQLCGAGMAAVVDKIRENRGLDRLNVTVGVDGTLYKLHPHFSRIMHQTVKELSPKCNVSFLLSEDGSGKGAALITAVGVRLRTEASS
Sequence of Paired box protein Pax-8 (Q06710 whole entry): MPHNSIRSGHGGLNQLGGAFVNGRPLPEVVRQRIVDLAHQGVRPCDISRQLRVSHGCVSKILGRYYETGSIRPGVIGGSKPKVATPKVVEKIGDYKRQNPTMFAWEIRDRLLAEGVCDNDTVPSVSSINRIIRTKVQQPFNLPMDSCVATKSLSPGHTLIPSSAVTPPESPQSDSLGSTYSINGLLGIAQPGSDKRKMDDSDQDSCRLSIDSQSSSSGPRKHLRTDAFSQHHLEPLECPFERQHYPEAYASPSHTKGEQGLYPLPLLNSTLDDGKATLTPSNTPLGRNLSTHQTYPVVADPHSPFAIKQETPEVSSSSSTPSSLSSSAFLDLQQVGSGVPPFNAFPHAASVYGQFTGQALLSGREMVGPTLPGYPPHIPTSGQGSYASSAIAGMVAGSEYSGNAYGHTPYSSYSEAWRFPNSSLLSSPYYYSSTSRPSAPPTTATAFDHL

One may read the IC50 as the midpoint of a concentration-inhibition curve. As for `Sc1nnc(-c2ccncc2)n1/N=C/c1cn(-c2ccccc2)nc1-c1ccc(Cl)cc1`, the results for the IC50 at SUMO-activating enzyme [1] and on SUMO-activating enzyme [2] were 28.8 µM (active) and 3.28 µM (active), respectively.

One may read the EC50 as the concentration that produces a half-maximal response. One may read the AC50 as the midpoint of the concentration-response curve, whichever way the signal moves. Regarding `CN(Cc1cnc2nc(N)nc(N)c2n1)c1ccc(C(=O)N[C@@H](CCC(=O)O)C(=O)O)cc1`, the EC50 with Streptococcus is 0.65 µM (active); in the assay on BJ [3] it was > 133 µM (inactive); in “cells”, 0.078 µM (active); in [4], 0.244 µM (active); in assay [5], 0.011 µM (active); in assay [6], < 0.1 µM (active). The 50% effective concentration (EC50) with BJ [7] was > 150 µM (not active); in [8] it was 0.621 µM (active); with BJ [9], > 150 µM (not active); in assay [10] it was < 0.1 µM (active); in assay [11], 0.074 µM (active); with BJ [12] it was < 0.46 µM (active). Also, in the assay with HEK293, the AC50 was 0.332 µM (active).

For the compound `C=CC(C)(C)c1c(O)c(CC=C(C)C)c(O)c2c(=O)c3ccc(O)c(O)c3oc12` [GERONTOXANTHONE I], the EC50 in assay [13] was > 160 µM (inconclusive); with Streptococcus, 7.75 µM (active); in assay [15], > 38 µM (not active); in the assay on T-cell it was 2.86 µM (active); in assay [8], 2.29 µM (active); on Streptokinase A, > 150 µM (not active). In addition, the AC50 in the assay on INS1 is 3.34 µM (active); in assay [14] it was 8.03 µM (active); in [16] it was 8.27 µM (active).

Take `CC(=C/c1ccco1)/C=N/NC(=O)CSc1nnc(SCc2ccc(C)cc2)s1`: the IC50 in assay [17] is > 80 µM (inactive).

For the compound `COc1ccc(C2=NN=C(Nc3cc(S(=O)(=O)N(C)C)ccc3C)SC2)c(OC)c1`, the EC50 in assay [18] is 3.57 µM (active); on Hexokinase HKDC1, 18.5 µM (active); on Hexokinase-1, 17.4 µM (active); in [19], 5.85 µM (active). Also, the AC50 is 5.48 µM (active) in the assay on INS1 and 6.77 µM (active) at Paired box protein Pax-8.

With `CC1CCCC(NC(=O)COC(=O)/C=C/c2ccc3c(c2)OCO3)C1C` (configuration not stated), the “Absolute IC50 (XBP1)” value on X-box-binding protein 1 was determined as 10 µM.
